Results published in US5512548A, “CETP inhibitor polypeptide, antibodies against the synthetic polypeptide and prophylactic and therapeutic anti-atherosclerosis treatments” (Southwest Foundation for Biomedical Research, priority 1994, dated 1996).

System: CETP
Experiment: Cholesteryl ester transfer assay (CE transfer from 3H CE-HDL3 to VLDL+LDL with LPDS as CETP source)
Assay type: biochemical, baboon (Papio sp.)
Details: electroeluted from gels, increasing concentrations, lipoproteins from low HDL1 baboons
Description: The CE transfer activity of a sample was assayed by a modification of a procedure described previously (Kushwaha et al, (1986), supra).
Briefly, ^3 H CE-labeled HDL3 containing 50-100 μg of CE from low HDL1 baboons was incubated with VLDL+LDL containing 100-300 μg CE in the presence of LPDS. The acceptor lipoproteins and the LPDS were obtained from low HDL1 baboon plasma (chow diet). In some cases the HDL3 was obtained from high HDL1 baboons maintained on the HCHF diet.
The incubations were carried out at 4° C. (control) and 37° C. for 4-6 hrs, and terminated by placing the samples on ice. The assay mixture was then ultracentrifuged to separate VLDL+LDL having a […], and the radioactivity in the lipoproteins was counted as described previously (Kushwaha et al, (1986), supra). Any difference observed in the radioactivity transferred from HDL to VLDL+LDL at 4° C. and 37° C. was attributed to CETP activity in the LPDS.
Time course experiments gave a linear response up to 7 hrs. Similarly, the CETP activity was linear with increasing LPDS, up to 140 μl LPDS, which was derived from an equivalent volume of plasma. […]
The percent difference between the control experiment and the assay with inhibitor peptide was expressed as the inhibitor activity. […]

## Albumin
  effect on the transfer of CE from HDL to VLDL+LDL (CETP activity): no effect
